# From article PMC11356819 (Molecules, 2024)
# Experiment: PET biodistribution in healthy mice
# Format: in vivo, C57BL/6 mice
# Description: The in vivo stability, whole-body biodistribution and excretory pathways of [^18F]4 were investigated by small animal PET imaging in healthy C57BL/6 mice (Figure 5). […] In contrast, renal excretion was negligible, with very low radioactivity accumulation in the urinary bladder. Background uptake into muscles and other tissues was also low, with maximum SUVbw values of 52 ± 6 after 16 min followed by a decline to 18 ± 2 after 120 min. […] Nevertheless, while limited BBB penetrance might be an issue in patients with an intact BBB, brain tumors like gliomas are often associated with partial BBB disruption, which could facilitate tumor delivery of the probe. […] With this in mind and based on the reasonable in vivo stability and low background uptake, the tumor accumulation and mIDH-selectivity of [^18F]4 were further investigated in a subcutaneous tumor model.
# All experiments were carried out in accordance with the EU directive 2010/63/EU for animal experiments and the German Animal Welfare Act (TierSchG, 2006) and were approved by the regional authorities (LANUV NRW; 81-02.04.2022.A442). Six male CB17-SCID mice and four male C57BL/6 mice (Janvier Labs, Le Genest-Saint-Isle, France) were housed in groups in individually ventilated cages (Allentown LLC, Allentown, NJ, USA) in a temperature- and humidity-controlled room (20 ± 2 °C, 50–60% humidity) on a 12:12 h light–dark cycle. Throughout the experiments, the animals had ad libitum access to water and food.
# The mice were anesthetized with isoflurane (5% for induction, 2% for maintenance) in O2/air (3:7), and a catheter for tracer injection was inserted into the lateral tail vein. They were placed on an animal holder (Medres, Cologne, Germany) and fixed with a tooth bar in a respiratory mask. Body temperature was maintained at 37 °C by warming the animal bed. Eyes were protected from drying with Bepanthen eye and nose ointment (Bayer, Leverkusen, Germany). Respiratory rate was monitored and maintained at around 40–60 breaths per minute by adjusting the isoflurane concentration. A PET scan in list mode was conducted using a Focus 220 micro PET scanner (CTI-Siemens, Erlangen, Germany) with a resolution at the center of the field of view of 1.4 mm. Data acquisition started with intravenous tracer injection and ended after 120 min. This was followed by a 10 min transmission scan using a ^57Co point source for attenuation correction. After the scan was completed, the catheter was removed and the animals were allowed to wake up in their home cage. Data were histogrammed in three ways: (1) 4 × 30 min frames for visual display, (2) 28 frames (2 × 1 min, 2 × 2 min, 6 × 4 min, 18 × 5 min) for determination of time–activity curves, (3) 53 frames (12 × 10 s, 6 × 30 s, 15 × 1 min, 20 × 5 min) for kinetic modelling. Full 3D rebinning was followed by an iterative OSEM3D/MAP reconstruction algorithm with attenuation and decay correction. The resulting voxel sizes were 0.47 mm × 0.47 mm × 0.80 mm. All further analysis was performed with the software VINCI 5.21 (Max Planck Institute for Metabolism Research, Cologne, Germany). Standardized uptake values based on body weight (SUVbw) were determined according to the following equation: SUVbw = radioactivity [Bq/g] × body weight [g] × 100/injected dose [Bq]. Statistical analysis of the results was performed with a 2-way analysis of variance (ANOVA) followed by Sidak’s multiple comparison test to identify significant differences between the two tumor types.
structure (smiles),measurement,setting,value
COc1cc(NCc2cc3cc([18F])ccc3[nH]c2=O)ccc1C#N [[^18F]4],max. SUVbw liver,"after 3 min, i.v., n = 4",304 ± 54
same,maximum SUVbw muscles and other tissues (background),after 16 min,52 ± 6
same,SUVbw bone,after 120 min,67 ± 8
same,SUVbw muscles and other tissues (background),after 120 min,18 ± 2
same,max. SUVbw intestine,"after 120 min, i.v., n = 4",5344 ± 1693
same,excretory pathway,"mouse, in vivo",almost exclusive hepatobiliary excretion
same,renal excretion,"mouse, in vivo",negligible
same,brain uptake of radioactivity,throughout all measurements,very low
